Assay [1] deals with PSC-CMs cultured in monolayer. Briefly: In-vitro spontaneous beat rate of PSC-CMs under anti-arrhythmic drugs. The class given is cell-based, human. The conditions noted are these: 0-100 μM drug concentrations. An excerpt:
FIG. 3. […] A further 2 animals underwent sham infarction and vehicle injection. (b) Representative CMR reconstruction (created with ADAS 3D) merged with epicardial voltage map, used to choose, and annotate border and infarct zone injection sites (black circles). (c) Plot depicting the percentage of time per day each cell (red), cell and drug (blue), or vehicle (green) recipient spent in ventricular arrhythmia over course of study protocol. […] (f) Dose-dependent suppression of PSC-CM contraction rate using amiodarone (dark purple, square) and ivabradine (light purple, circle) in vitro (0-100 μM drug concentrations). […] (h) Telemetry strip from representative cell and anti-arrhythmic recipient showing predominantly sinus rhythm with occasional ventricular ectopic beat. (i-k) Arrythmia parameters from day 0 to day 28 for each subject, grouped by treatment allocation (presented as mean±SEM). […]
Given the automatic mechanism for PSC-CM EAs, the inventors hypothesised that suppressing the rate of graft automaticity below that of the native sinus node would reduce arrhythmia burden. […] To further interrogate this finding the beat rates of sinus rhythm and EAs for each animal were analysed.

Assay [2] deals with H9 human embryonic stem cell line containing a gCaMP6f reporter, differentiating aggregates. Description: Bioreactor PSC-CM differentiation with retinoic acid signalling activated: cTnT flow cytometry, qPCR, scRNA-seq, beat frequency. It counts as cell-based. The method, then:
The H9 cell line containing the gCaMP6f fluorescent calcium reporter was used for all experiments (provided by University of Queensland StemCore facility). Each production run was started from a frozen working cell bank (WCB) cryovial, which was expanded for 8 days in monolayer on matrigel (Corning) using the commercially available medium mTeSR™ Plus (Stem Cell Technologies) (FIG. 1). On Day −3, cells were inoculated at a density of 2.5-3.0×10^5 cells/mL in mTeSR 3D supplemented with 10 μM Y-27632 (TOCRIS Bioscience) and 10 ug/mL of a thermoresponsive polymer pNIPAM conjugated to fibronectin (Chen, X. et al. Tissue Eng Part C Methods 24, 146-157) to form aggregates. A DASbox (Eppendorf) stirred tank bioreactor system was used for aggregate formation and suspensions controlled at 37.2° C., pH 7.2, and 30% DO. At day −1, rapamycin (Merck) was added to a final concentration of 5 nM to enhance survival during differentiation. […]
The expression of cTnT was measured on a Cytoflex Flow Cytometer (Beckman Coulter). […]
Reactions were performed in technical triplicate. Quantitative PCR was performed on the BioRad CFX96 Real-Time PCR Detection System with standard cycling parameters described in the master mix protocol. […] Fold difference in expression was calculated using the comparative CT formula, using GAPDH cDNA from a reference sample. […]
Background: In flow cytometry, cells or beads pass a laser one at a time.

Another assay deals with hPSC SCVI8. Briefly: DEAB-treated cardiomyocyte differentiation, RT-PCR at day 14. It counts as cell-based, human. As to conditions: DEAB 1 nM-100 μM, day 3 to 7 or day 5 to 7. The method, then:
hPSC SCVI8 were cultured in Matrigel® (Corning, Cat. No. 354277) coated petri dishes in complete mTeSR™ Plus basal medium (StemCell Technologies, Cat. No. 100-0276) supplemented with 20% (v/v) mTeSR™ Plus 5× supplement (StemCell Technologies) and 0.5% (v/v) streptomycin and penicillin (ThermoFisher, Cat. No. 15140163) at 37° C. in 5% CO2. Media was changed daily and cells passaged when confluency reached approximately 80%.
Cardiomyocyte differentiation was achieved using small-molecule modulators of canonical Wnt signalling as described by Lian et al. (Lian et al. […]; 8(1):162-175), but with the addition of 1 nM, 1 μM or 100 μM 4-diethylaminobenzaldehyde (DEAB, Sigma Merck, Cat. No. D86256) at either day 3 or 5 of differentiation (FIG. 9a.). In brief, hPSC SCVI8 cells from confluent dishes were washed once with Dulbeco's Phosphate Buffered Saline (DPBS) without calcium and magnesium (Lonza, Cat. No. 17-512F), and harvested with TrypLE™ Express Enzyme (ThermoFisher, Cat. No. 12604021) and seeded at a concentration of 3.75×10^5 cells/mL in Matrigel® coated 12-well plates at a volume of 2 mL of complete mTeSR Plus basal medium and 10 μM Y-27632 (RHO/ROCK) inhibitor (StemCell Technologies, Cat. No. 072304). At day 0 of differentiation, cells were washed once using DPBS and transferred to mesoderm induction media that consisted of 6 μM CHIR99021 (GSK3 inhibitor, Tocris, Cat. No. 4423) in complete Roswell Park Memorial Institute (RPMI) 1640 medium, no glutamine (ThermoFisher, Cat. No. 21870092) supplemented with 2% (v/v) B-27 supplement, minus insulin (ThermoFisher, Cat. No. A1895601), 0.5% (v/v) streptomycin and penicillin and 1% (v/v) GlutaMAX™ supplement (ThermoFisher, Cat. No. 35050061). At day 1, CHIR99021 was removed, and cells maintained in complete RPMI minus insulin. At day 3, cells were transferred to cardiac induction media that consisted of 5 μM IWP-2 (Tocris, Cat. No. 3533) in complete RPMI minus insulin and was removed at day 5. At day 7 of differentiation, cells were maintained in complete RPMI supplemented with 2% (v/v) B-27™ Supplement (50×) (ThermoFisher, Cat. No. 17504-001), 0.5% (v/v) streptomycin and penicillin and 1% (v/v) GlutaMAX™ supplement. The media was changed every 2-3 days. Cells were harvested at day 14 for quantitative real-time polymerase chain reaction (RT-PCR).
Total cellular RNA was extracted using the Isolate II RNA Mini Kit (Bioline, Cat. No. BIO-52073) as per the manufacturer's instructions. Reverse transcription was performed with M-MLV Reverse Transcriptase (Promega, Cat. No. M1701) following the manufacturer's protocol. mRNA gene expression was assessed by qPCR using SensiFAST™ SYBR® No-ROX Kit (Meridian Bioscience, Cat. No. BIO-98050) on the Bio-Rad CFX384 Real-Time PCR detection system, with the following PCR conditions: 95° C. for 2 min and 40 cycles of 95° C. for 5 s, 60° C. for 10 s and 72° C. for 15 s, followed by melt curve analysis. All primers used for detection of mRNA expression are outline in Table 3. All data was normalised to the reference gene 18S and normalised to control cells (non-treated PSC-CM).

Turning to `COc1cc2c(cc1OC)CC(=O)N(CCCN(C)C[C@H]1Cc3cc(OC)c(OC)cc31)CC2` [Ivabradine], in assay [1], the “spontaneous beat rate of PSC-CMs” value is “dose-dependent reduction in the spontaneous beat rate”.
In the case of `CC1=C(/C=C/C(C)=C/C=C/C(C)=C/C(=O)O)C(C)(C)CCC1` [Retinoic acid, retinoic acid], in assay [2] (RA signalling activated day 2 to day 6, n=12, control differentiations in parallel 83.6±7.0%), the cTnT expression worked out at 62.4±33.1%. For the same compound, the “rate of spontaneous contraction of aggregates” value in assay [2] (day 15 before aggregate dissociation, n=6, control 14.2±5.5 b.p.m) is 50.7±16.8 b.p.m.
Consider `CCN(CC)c1ccc(C=O)cc1` [DEAB, 4-diethylaminobenzaldehyde], for which, in the assay on hPSC SCVI8 (RT-PCR day 14), the “expression level of IRX4” value is given as “no significant difference”, the “expression level of KCNJ3” value is reported as “significant lower expression levels”, the “expression level of MYH7” value was “no significant difference” and the “expression level of MYL2v” value is “no significant difference”. In addition, the “expression level of SHOX2” value in the assay with hPSC SCVI8 (RT-PCR day 14) is on record as “significant lower expression levels”. Also, the “expression level of cTnT” value in the assay on hPSC SCVI8 (RT-PCR day 14, relative to 18S, versus non-treated PSC-CM) is “no significant difference”.
As for `CCCCc1oc2ccccc2c1C(=O)c1cc(I)c(OCCN(CC)CC)c(I)c1` [amiodarone], in assay [1], the “spontaneous beat rate of PSC-CMs” value is on record as “dose-dependent reduction in the spontaneous beat rate”.
